The target of data set [1] is T1, SmoA (Atu3277), flavin mononucleotide reductase (Agrobacterium fabrum, UniProt Q7CS24).
T1 sequence (Q7CS24 1-174): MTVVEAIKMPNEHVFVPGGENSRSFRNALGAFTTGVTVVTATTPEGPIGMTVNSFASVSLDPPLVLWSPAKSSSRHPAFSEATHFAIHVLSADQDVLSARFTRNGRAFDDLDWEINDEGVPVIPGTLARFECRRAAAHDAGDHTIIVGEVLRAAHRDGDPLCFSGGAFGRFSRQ
In words: copurification, LC-MS of heat-released flavin. The class given is binding.

The target of data set [2] is T2, SmoB (Atu3278), 6-OG reductase (Agrobacterium fabrum, UniProt A9CEY6).
T2 sequence (A9CEY6 1-297): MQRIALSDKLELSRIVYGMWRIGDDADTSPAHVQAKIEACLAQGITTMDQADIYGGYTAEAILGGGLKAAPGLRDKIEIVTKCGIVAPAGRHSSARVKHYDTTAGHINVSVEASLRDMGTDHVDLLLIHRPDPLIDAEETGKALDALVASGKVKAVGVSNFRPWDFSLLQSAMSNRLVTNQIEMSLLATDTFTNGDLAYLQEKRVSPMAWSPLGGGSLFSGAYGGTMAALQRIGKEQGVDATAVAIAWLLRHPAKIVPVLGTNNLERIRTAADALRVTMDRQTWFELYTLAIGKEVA
The experiment in a line: ITC. The class given is binding.

Substrate in the data set “purified protein”: NC(=O)C1=CN([C@@H]2O[C@H](COP(=O)(O)OP(=O)(O)OC[C@H]3O[C@@H](n4cnc5c(N)ncnc54)[C@H](O)[C@@H]3O)[C@@H](O)[C@H]2O)C=CC1
In words: purified protein. As to conditions: FMN.

The data set “SEC-MALS” deals with the molecule itself. In words: SEC-MALS. (SEC sorts molecules by how far they enter the pores of the column.)

For `Cc1cc2nc3c(=O)[nH]c(=O)nc-3n(C[C@H](O)[C@H](O)[C@H](O)COP(=O)(O)O)c2cc1C` [FMN], the “copurification, LC-MS of heat-released flavin” value in data set [1] was “to reveal that flavin mononucleotide (FMN) was the sole detectable flavin”.
Usually Kd stands for a measure of binding affinity in units of concentration. `NC(=O)C1=CN([C@@H]2O[C@H](COP(=O)(O)OP(=O)(O)OC[C@H]3O[C@@H](n4cnc5c(N)ncnc54)[C@H](OP(=O)(O)O)[C@@H]3O)[C@@H](O)[C@H]2O)C=CC1` [NADPH]: in data set [2], the Kd is ~2000 nM.

B1: SmoA (Atu3277), flavin mononucleotide reductase (Agrobacterium fabrum str. C58) (protein)
chain: MTVVEAIKMPNEHVFVPGGENSRSFRNALGAFTTGVTVVTATTPEGPIGMTVNSFASVSLDPPLVLWSPAKSSSRHPAFSEATHFAIHVLSADQDVLSARFTRNGRAFDDLDWEINDEGVPVIPGTLARFECRRAAAHDAGDHTIIVGEVLRAAHRDGDPLCFSGGAFGRFSRQ
A word on the Km: it is the substrate concentration at which the rate is half of its maximum. For the molecule B1, the Michaelis constant (Km) in “purified protein” stood at 35 ± 5 µM.

B2: SmoC (Atu3279), SQ monooxygenase from Agrobacterium tumefaciens C58 (enzyme)
chain: MTVVPVTSADLDAAEVSWFSALCSDDYAYLGVPDGSLRSSFEHCSDIVKKAEELGFRNILCPSSYQVGQDTLSFVAGCAPISDRINFLAAIRCGEMQPIMLARTVATLDHMLKGRLTLNVISSDFPGEVADSAFRYKRSHEVVEILRQAWTRDTIDHDGEIYQFKGVSTEPARPYQLNGGPLLYFGGYSPDALELCGAQCDVYLMWPETKDQLADRMRAAHERAAAHGRTLDYGLRVHMVVRDTEQEAREYADHLVSKLDDEYGQLIRNRAHDSGSLGVSHQARARELADKFGYVEPNLWTGIGRARSGCGAALVGSTDQVLSALEEYQKMGIRAFILSGYPHLDEAEHFGTKVLPQMKTCSLPHAYGRVPSETPATPLGNGERH
The stoichiometry N is a count of units in the complex or per binding partner. In the case of B2, the “stoichiometry N” value in the data set “SEC-MALS” was determined as 2.

For the origin of these results see article PMC8795539 (Proceedings of the National Academy of Sciences of the …, 2022).
